US20240100065A1, “METHODS FOR TREATING RECEPTOR-INTERACTING PROTEIN KINASE 1-MEDIATED DISEASES” (Genzyme Corporation, priority 2022, published 2024)
Entries after “also recorded” stand apart in the source; their conditions may differ.

Assay: Plasma pharmacokinetics after single and repeated oral doses
Type: in vivo, healthy adult participants (human)
Conditions: for AUC ratio, point estimate / AUClast ratio, point estimate / Cmax ratio, point estimate: Part 1a fasted
Description: In Part 1a, plasma samples were collected before dosing and at 10 post-dose timepoints on Day 1 (30 minutes, 1 hour, followed by every hour until 6 hours, and then every 2 hours until 12 hours), and single samples on Day 2 (at 24 hours) and Day 3 (at 48 hours). In Part 1b, timepoints included at least pre-dose and at 10 post-dose timepoints, including plasma sampling at the same time of CSF sampling. In Part 2, on Day 1 and Day 14, plasma samples were collected at pre-dose and at 10 to 11 post-dose timepoints. In addition, plasma samples were collected on Days 2, 3, 5, 7, 11, 15, 16, and 17.
PK population included all participants exposed to Compound 1 with no major or critical deviations related to Compound 1 and for whom PK data were considered sufficient and interpretable. PK parameters were summarized by descriptive statistics for each dose level group. Distribution of Tmax values was represented by histogram plots for each dose level group. In Part 1a, dose proportionality was assessed using a linear model on Cmax, AUClast and AUC. In Part 2, all PK analyses were performed separately for each regimen (OD and BID). Steady state was assessed on Ctrough using a non-linear model. Accumulation was assessed using a linear model on log-transformed accumulation ratio. Dose proportionality was assessed using a power model on Cmax and AUCtau on Day 1 and Day 14, separately. Variance components of log-transformed Cmax and AUCtau were estimated using a linear model. In Part 1b, CSF concentration was described by dose level group and CSF to plasma unbound concentration ratios calculated were described in the same way. 4β-hydroxycholesterol on Day 14 versus Day 1 pre-dose concentration ratios were summarized using descriptive statistics by dose level group and point estimates with 90% confidence interval (90% CI) for the geometric mean of the log-transformed Day14/Day1 ratio was calculated in Part 2.

[1] = 20 mg vs. 10 mg (dose increase = 2)
[2] = 30 mg vs. 10 mg (dose increase = 3)
[3] = 30 mg vs. 20 mg (dose increase = 1.5)
[4] = 40 mg vs. 10 mg (dose increase = 4)
[5] = 40 mg vs. 20 mg (dose increase = 2)
[6] = 40 mg vs. 30 mg (dose increase = 1.33)

CC(C)(C(=O)N1CCOc2c(C#N)cncc2C1)C(F)F [Compound 1, 4-(3,3-difluoro-2,2-dimethyl-propanoyl)-3,5-dihydro-2H-pyrido[3,4-f] [1,4]oxazepine-9-carbonitrile]
Accumulation ratio (AUC0-24h), Day 14/Day 1 (10 mg QD): 1.31
Accumulation ratio (Cmax), Day 14/Day 1 (10 mg QD): 1.00
Accumulation ratio (AUC0-12h), Day 14/Day 1 (15 mg BID): 1.45
Accumulation ratio (Cmax), Day 14/Day 1 (15 mg BID): 1.24
Accumulation ratio (AUC0-12h), Day 14/Day 1 (20 mg BID): 1.63
Accumulation ratio (Cmax), Day 14/Day 1 (20 mg BID): 1.71
Accumulation ratio (AUC0-24h), Day 14/Day 1 (20 mg QD): 1.13
Accumulation ratio (Cmax), Day 14/Day 1 (20 mg QD): 1.06
Cmax (20 mg QD, MAD study, read-out: Mean observed Cmax at steady state): 860 nM
Within-subject variability for AUCtau (BID cohorts): 11.3%
Within-subject variability for Cmax (BID cohorts): 17.9%
Total variability for AUCtau (BID dosing regimen): 28.4%
Total variability for Cmax (BID dosing regimen): 32.2%
Dose proportionality: AUC0-24h (AUCtau) ratio for dose ratio (r) = 2 (Day 14, 10 and 20 mg QD): 1.51
Dose proportionality: Cmax ratio for dose ratio (r) = 2 (Day 14, 10 and 20 mg QD): 1.58
Dose proportionality: AUC0-12h (AUCtau) ratio for dose ratio (r) = 1.3333 (Day 14, 15 and 20 mg BID): 1.32
Dose proportionality: Cmax ratio for dose ratio (r) = 1.3333 (Day 14, 15 and 20 mg BID): 1.31
AUC ratio, point estimate [1]: 2.07
AUClast ratio, point estimate [1]: 2.11
Cmax ratio, point estimate [1]: 2.08
AUC ratio, point estimate [2]: 2.09
AUClast ratio, point estimate [2]: 2.16
Cmax ratio, point estimate [2]: 3.60
AUC ratio, point estimate [3]: 1.01
AUClast ratio, point estimate [3]: 1.02
Cmax ratio, point estimate [3]: 1.73
AUC ratio, point estimate [4]: 4.43
AUClast ratio, point estimate [4]: 4.56
Cmax ratio, point estimate [4]: 4.79
AUC ratio, point estimate [5]: 2.15
AUClast ratio, point estimate [5]: 2.16
Cmax ratio, point estimate [5]: 2.31
AUC ratio, point estimate [6]: 2.12
AUClast ratio, point estimate [6]: 2.11
Cmax ratio, point estimate [6]: 1.33
AUC, GM (Part 1a single 10 mg fasted): 1170 ng·h/mL
CL/F, GM (Part 1a single 10 mg fasted): 8.56 L/h
CL/F, mean (Part 1a single 10 mg fasted): 9.11 L/h
Cmax, GM (Part 1a single 10 mg fasted): 116 ng/mL
T1/2z, GM (Part 1a single 10 mg fasted): 7.97 h
T1/2z, mean (Part 1a single 10 mg fasted): 8.22 h
Tlast, median (Part 1a single 10 mg fasted): 48.0 h
Tmax, median (Part 1a single 10 mg fasted): 1.02 h
AUC, GM (Part 1a single 20 mg fasted): 2410 ng·h/mL
AUC, mean (Part 1a single 20 mg fasted): 2450 ng·h/mL
AUClast, GM (Part 1a single 20 mg fasted): 2360 ng·h/mL
AUClast, mean (Part 1a single 20 mg fasted): 2400 ng·h/mL
CL/F, GM (Part 1a single 20 mg fasted): 8.28 L/h
CL/F, mean (Part 1a single 20 mg fasted): 8.43 L/h
Cmax, GM (Part 1a single 20 mg fasted): 241 ng/mL
T1/2z, GM (Part 1a single 20 mg fasted): 7.48 h
T1/2z, mean (Part 1a single 20 mg fasted): 7.63 h
Tlast, median (Part 1a single 20 mg fasted): 48.0 h
Tmax, median (Part 1a single 20 mg fasted): 1.50 h
AUC, GM (Part 1a single 30 mg fasted): 2440 ng·h/mL
AUClast, GM (Part 1a single 30 mg fasted): 2420 ng·h/mL
CL/F, GM (Part 1a single 30 mg fasted): 12.3 L/h
CL/F, mean (Part 1a single 30 mg fasted): 13.1 L/h
Cmax, GM (Part 1a single 30 mg fasted): 417 ng/mL
T1/2z, GM (Part 1a single 30 mg fasted): 5.70 h
T1/2z, mean (Part 1a single 30 mg fasted): 5.99 h
Tlast, median (Part 1a single 30 mg fasted): 48.0 h
Tmax, median (Part 1a single 30 mg fasted): 1.00 h
AUC, GM (Part 1a single 40 mg fasted): 5180 ng·h/mL
AUClast, GM (Part 1a single 40 mg fasted): 5120 ng·h/mL
CL/F, GM (Part 1a single 40 mg fasted): 7.72 L/h
CL/F, mean (Part 1a single 40 mg fasted): 8.15 L/h
Cmax, GM (Part 1a single 40 mg fasted): 555 ng/mL
T1/2z, GM (Part 1a single 40 mg fasted): 6.29 h
T1/2z, mean (Part 1a single 40 mg fasted): 6.40 h
Tlast, median (Part 1a single 40 mg fasted): 48.0 h
Tmax, median (Part 1a single 40 mg fasted): 1.50 h
Dose proportionality of exposures (Part 1a, between 10 and 40 mg): no major deviation from dose proportionality; also recorded: increased according to dose proportionality
AUC, GM (Part 1b single 10 mg fed): 1370 ng·h/mL
AUClast, GM (Part 1b single 10 mg fed): 1170 ng·h/mL
CL/F, GM (Part 1b single 10 mg fed): 7.27 L/h
CL/F, mean (Part 1b single 10 mg fed): 7.63 L/h
Cmax, GM (Part 1b single 10 mg fed): 111 ng/mL
Cmax, mean (Part 1b single 10 mg fed): 115 ng/mL
T1/2z, GM (Part 1b single 10 mg fed): 7.97 h
T1/2z, mean (Part 1b single 10 mg fed): 8.09 h
Tlast, median (Part 1b single 10 mg fed): 24.0 h
Tmax, median (Part 1b single 10 mg fed): 4.24 h
AUC, GM (Part 1b single 40 mg fed): 4740 ng·h/mL
AUClast, GM (Part 1b single 40 mg fed): 3960 ng·h/mL
CL/F, GM (Part 1b single 40 mg fed): 8.43 L/h
CL/F, mean (Part 1b single 40 mg fed): 8.92 L/h
Cmax, GM (Part 1b single 40 mg fed): 374 ng/mL
T1/2z, GM (Part 1b single 40 mg fed): 8.03 h
T1/2z, mean (Part 1b single 40 mg fed): 8.31 h
Tlast, median (Part 1b single 40 mg fed): 24.0 h
Tmax, median (Part 1b single 40 mg fed): 4.5 h
Mean T1/2z across doses and regimens (Part 2, Day 14): 7.3 to 9.1 h
Median time to steady state of plasma concentrations (Part 2, after first administration, irrespective of dose or regimen): 1.4 to 2 days
